Laboratory results as given in patent US20240409585A1, “MACROCYCLIC IMMUNOMODULATORS” (priority 2021, published 2024).
Bridge positions count the residues as written; N and C are the ends. Square brackets hold non-standard residues; d marks the D form. Peptide text beside a SMILES is read from it. * marks the point of attachment. ξ: configuration not given here. Phe(4-(4-pyridyl)) = N[C@@H](Cc1ccc(-c2ccncc2)cc1)C(=O)O; Tyr(3-NO2) = N[C@@H](Cc1ccc(O)c([N+](=O)[O-])c1)C(=O)O; Phe(4-COOH) = N[C@@H](Cc1ccc(C(=O)O)cc1)C(=O)O; Trp(2-Me) = Cc1[nH]c2ccccc2c1C[C@H](N)C(=O)O; Bip = N[C@@H](Cc1ccc(-c2ccccc2)cc1)C(=O)O; Phe(3-Cl) = N[C@@H](Cc1cccc(Cl)c1)C(=O)O; Phe(4-CN) = N#Cc1ccc(C[C@H](N)C(=O)O)cc1; Phe(3-Me) = Cc1cccc(C[C@H](N)C(=O)O)c1; Bta = N[C@@H](Cc1csc2ccccc12)C(=O)O; Val(3-OH) = CC(C)(O)[C@H](N)C(=O)O; Cha = N[C@@H](CC1CCCCC1)C(=O)O; Cit = NC(=O)NCCC[C@H](N)C(=O)O; Thr(3ξ) = CC(O)[C@H](N)C(=O)O; Carboxymethyl = O=C(O)C*; NMeA = CN[C@@H](C)C(=O)O; Orn = NCCC[C@H](N)C(=O)O; Pra = C#CC[C@H](N)C(=O)O; Dab = NCC[C@H](N)C(=O)O; Dap = NC[C@H](N)C(=O)O; ξC = NC(CS)C(=O)O

What follows are molecules tested against T1, PE-labeled human PD-L1-Ig binding to Jurkat cell line over-expressing human PD-1 (Jurkat-PD-1) (Homo sapiens, UniProt Q15116) (assay: Jurkat-PD-1 Cell Binding High-Content Screening Assay (CBA): Method 1). Settings: Jurkat-hPD-1 cells, PE-labeled PD-L1-Ig 20 nM final; read-out: Jurkat HPDL1 PD1 IC50 (uM) (Method 1).
T1 construct: expressed in transfected cells; host or cells: Jurkat
T1 sequence (Q15116 25-288): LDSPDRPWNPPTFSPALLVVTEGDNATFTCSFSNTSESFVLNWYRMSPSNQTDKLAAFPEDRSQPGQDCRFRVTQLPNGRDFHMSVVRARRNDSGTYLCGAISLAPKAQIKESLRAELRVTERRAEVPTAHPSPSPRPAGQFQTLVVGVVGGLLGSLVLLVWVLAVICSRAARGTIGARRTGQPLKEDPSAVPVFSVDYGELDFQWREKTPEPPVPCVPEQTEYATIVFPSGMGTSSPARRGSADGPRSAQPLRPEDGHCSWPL

First: CC(C)C[C@@H]1NC(=O)[C@H](CCN)NC(=O)[C@@H](CC(C)C)NC(=O)[C@H](C)N(C)C(=O)[C@H](CCCNC(N)=O)NC(=O)[C@H](Cc2ccc(-c3ccccc3)cc2)NC(=O)[C@H](C(C)C)NC(=O)[C@H](Cc2c[nH]c3ccccc23)NC(=O)[C@H](CC(=O)O)NC(=O)[C@H](Cc2ccc(O)c([N+](=O)[O-])c2)NC(=O)[C@H](CC(N)=O)NC(=O)CSC[C@@H](C(=O)N[C@@H](C)C(N)=O)NC(=O)[C@H]([C@@H](C)O)NC(=O)[C@H](C(C)C)NC1=O [Compound 1319] ({CH2CO}-N[Tyr(3-NO2)]DWV[Bip][Cit][NMeA][dL][Dab]LVTCA-NH2; thioether N-14)
Second: CC(C)C[C@@H]1NC(=O)[C@H](CCN)NC(=O)[C@@H](CC(C)C)NC(=O)[C@H](C)N(C)C(=O)[C@H](CCCNC(N)=O)NC(=O)[C@H](Cc2ccc(-c3ccccc3)cc2)NC(=O)[C@H](C(C)C)NC(=O)[C@H](Cc2c[nH]c3ccccc23)NC(=O)[C@H](CC(=O)O)NC(=O)[C@H](Cc2ccc(C#N)cc2)NC(=O)[C@H](CN)NC(=O)CSC[C@@H](C(=O)N[C@@H](C)C(N)=O)NC(=O)[C@H]([C@@H](C)O)NC(=O)[C@H](C(C)C)NC1=O [Compound 1408] ({CH2CO}-[Dap][Phe(4-CN)]DWV[Bip][Cit][NMeA][dL][Dab]LVTCA-NH2; thioether N-14)
The IC50 of the first is 2.5-fold lower: 0.04 µM for the first, 0.1 µM for the second.

Compared with Cc1[nH]c2ccccc2c1C[C@@H]1NC(=O)[C@H](CC(=O)O)NC(=O)[C@H](Cc2ccc(O)cc2)NC(=O)[C@H](Cc2ccccc2)NC(=O)CSC[C@@H](C(=O)N[C@@H](C)C(N)=O)NC(=O)[C@H]([C@@H](C)O)NC(=O)[C@H](C(C)C)NC(=O)[C@H](CC(C)C)NC(=O)[C@H](CCN)NC(=O)[C@@H](CC(C)C)NC(=O)[C@H](C)N(C)C(=O)[C@H](CCCNC(=N)N)NC(=O)[C@H](Cc2ccc(-c3ccccc3)cc2)NC(=O)[C@H](C(C)C)NC1=O [Compound 1202] ({CH2CO}-FYD[Trp(2-Me)]V[Bip]R[NMeA][dL][Dab]LVTCA-NH2; thioether N-14), CC(C)C[C@@H]1NC(=O)[C@H](CCCNC(=N)N)NC(=O)[C@@H](CC(C)C)NC(=O)[C@H](C)N(C)C(=O)[C@H](CCCNC(=N)N)NC(=O)[C@H](Cc2ccc(-c3ccncc3)cc2)NC(=O)[C@H](C(C)C)NC(=O)[C@H](Cc2c[nH]c3ccccc23)NC(=O)[C@H](CC(=O)O)NC(=O)[C@H](Cc2ccc(O)cc2)NC(=O)[C@H](Cc2ccccc2)NC(=O)CSC[C@@H](C(=O)N[C@@H](C)C(N)=O)NC(=O)[C@H]([C@@H](C)O)NC(=O)[C@H](C(C)C)NC1=O [Compound 1078] ({CH2CO}-FYDWV[Phe(4-(4-pyridyl))]R[NMeA][dL]RLVTCA-NH2; thioether N-14) is 1.5-fold lower in IC50: 0.73 µM for the first, 0.48 µM for the second.

Cc1cccc(C[C@@H]2NC(=O)[C@H](CC(=O)O)NC(=O)[C@H](Cc3ccc(OCC(=O)O)cc3)NC(=O)[C@H]([C@@H](C)O)NC(=O)CSC[C@@H](C(N)=O)NC(=O)[C@H](CCCN)NC(=O)[C@H](C(C)C)NC(=O)[C@H](CC3CCCCC3)NC(=O)[C@H](CCN)NC(=O)[C@@H](CC(C)C)NC(=O)[C@H](C)N(C)C(=O)[C@H](Cc3ccc(OCC(=O)O)cc3)NC(=O)[C@H](Cc3ccc(-c4ccccc4)cc3)NC(=O)[C@H](Cc3ccc(OCC(=O)O)cc3)NC2=O)c1 [Compound 1674] ({CH2CO}-TY(Carboxymethyl)D[Phe(3-Me)]Y(Carboxymethyl)[Bip]Y(Carboxymethyl)[NMeA][dL][Dab][Cha]V[Orn]C-NH2; thioether N-14) and C#CC[C@H](NC(=O)[C@H](CCN)NC(=O)[C@@H]1CSCC(=O)N[C@@H]([C@@H](C)O)C(=O)N[C@@H](Cc2ccc(OCC(=O)O)cc2)C(=O)N[C@@H](CC(=O)O)C(=O)N[C@@H](Cc2cccc(C)c2)C(=O)N[C@@H](Cc2ccc(OCC(=O)O)cc2)C(=O)N[C@@H](Cc2ccc(-c3ccccc3)cc2)C(=O)N[C@@H](Cc2ccc(OCC(=O)O)cc2)C(=O)N(C)[C@@H](C)C(=O)N[C@H](CC(C)C)C(=O)N[C@@H](CCN)C(=O)N[C@@H](CC2CCCCC2)C(=O)N[C@@H](C(C)(C)O)C(=O)N[C@@H](CCC(=O)O)C(=O)N1)C(=O)O [Compound 1937] ({CH2CO}-TY(Carboxymethyl)D[Phe(3-Me)]Y(Carboxymethyl)[Bip]Y(Carboxymethyl)[NMeA][dL][Dab][Cha][Val(3-OH)]EC[Dab][Pra]-OH; thioether N-14) are the same in IC50: 0.07 µM for the first, 0.07 µM for the second.

Going from CC(C)C[C@@H]1NC(=O)[C@H](CCCNC(=N)N)NC(=O)[C@@H](CC(C)C)NC(=O)[C@H](C)N(C)C(=O)[C@H](CCCNC(=N)N)NC(=O)[C@H](Cc2ccc(-c3ccccc3)cc2)NC(=O)[C@H](C(C)C)NC(=O)[C@H](Cc2c[nH]c3ccccc23)NC(=O)[C@H](CC(=O)O)NC(=O)[C@H](Cc2ccc(O)cc2)NC(=O)[C@H](CC(N)=O)NC(=O)CSC[C@@H](C(=O)N[C@@H](C)C(N)=O)NC(=O)[C@H]([C@@H](C)O)NC(=O)[C@H](C(C)C)NC1=O [Compound 1045] ({CH2CO}-NYDWV[Bip]R[NMeA][dL]RLVTCA-NH2; thioether N-14) to CC[C@@H](C)[C@H]1NC(=O)[C@H](C)N(C)C(=O)[C@H](CCCNC(=N)N)NC(=O)[C@H](Cc2ccc(-c3ccccc3)cc2)NC(=O)[C@H](C(C)C)NC(=O)[C@H](Cc2c[nH]c3ccccc23)NC(=O)[C@H](CC(=O)O)NC(=O)[C@H](Cc2ccc(O)cc2)NC(=O)[C@H](Cc2ccccc2)NC(=O)CSC[C@@H](C(=O)N[C@@H](C)C(N)=O)NC(=O)[C@H]([C@@H](C)O)NC(=O)[C@H](C(C)C)NC(=O)[C@H](CC(C)C)NC(=O)[C@H](CCCNC(=N)N)NC1=O [Compound 1066] ({CH2CO}-FYDWV[Bip]R[NMeA][dI]RLVTCA-NH2; thioether N-14), the IC50 rises from 0.2 µM to 0.79 µM (4-fold). The first is the more potent here.

Going from CC(C)C[C@@H]1NC(=O)[C@H](CCCNC(=N)N)NC(=O)[C@H](Cc2csc3ccccc23)NC(=O)[C@H](C)N(C)C(=O)[C@H](CCCNC(=N)N)NC(=O)[C@H](Cc2ccc(-c3ccccc3)cc2)NC(=O)[C@H](C(C)C)NC(=O)[C@H](Cc2c[nH]c3ccccc23)NC(=O)[C@H](CC(=O)O)NC(=O)[C@H](Cc2ccc(O)cc2)NC(=O)[C@H](CCC(N)=O)NC(=O)CSC[C@@H](C(=O)N[C@@H](C)C(N)=O)NC(=O)[C@H](CO)NC(=O)[C@H](C(C)C)NC1=O [Compound 1057] ({CH2CO}-QYDWV[Bip]R[NMeA][Bta]RLVSCA-NH2; thioether N-14) to CC(C)C[C@@H]1NC(=O)[C@H](CCN)NC(=O)[C@@H](CC(C)C)NC(=O)[C@H](C)N(C)C(=O)[C@H](CCCNC(=N)N)NC(=O)[C@H](Cc2ccc(-c3ccccc3)cc2)NC(=O)[C@H](C(C)C)NC(=O)[C@H](Cc2cccc(Cl)c2)NC(=O)[C@H](CC(=O)O)NC(=O)[C@H](Cc2ccc(C(=O)O)cc2)NC(=O)[C@H](CN)NC(=O)CSC[C@@H](C(=O)N[C@@H](C)C(N)=O)NC(=O)[C@H]([C@@H](C)O)NC(=O)[C@H](C(C)C)NC1=O [Compound 1459] ({CH2CO}-[Dap][Phe(4-COOH)]D[Phe(3-Cl)]V[Bip]R[NMeA][dL][Dab]LVTCA-NH2; thioether N-14), the IC50 falls from 0.18 µM to 0.04 µM (4.5-fold).

Compared with C#CC[C@H](NC(=O)CNC(=O)[C@@H]1CSCC(=O)N[C@@H](Cc2ccc(OCC(=O)O)cc2)C(=O)N[C@@H](Cc2ccc(C(=O)O)cc2)C(=O)N[C@@H](CC(=O)O)C(=O)N[C@@H](Cc2c[nH]c3ccccc23)C(=O)N[C@@H](CC(C)C)C(=O)N[C@@H](Cc2ccc(-c3ccccc3)cc2)C(=O)N[C@@H](C(C)C)C(=O)N(C)[C@@H](C)C(=O)N[C@H](CC(C)C)C(=O)N[C@@H](CCN)C(=O)N[C@@H](CC2CCCCC2)C(=O)N[C@@H](C(C)(C)O)C(=O)N[C@@H](CO)C(=O)N1)C(N)=O [Compound 1933] ({CH2CO}-Y(Carboxymethyl)[Phe(4-COOH)]DWL[Bip]V[NMeA][dL][Dab][Cha][Val(3-OH)]SCG[Pra]-NH2; thioether N-14), Cc1cccc(C[C@@H]2NC(=O)[C@H](CC(=O)O)NC(=O)[C@H](Cc3ccc(OCC(=O)O)cc3)NC(=O)[C@H](C(C)C)NC(=O)CSC[C@@H](C(=O)N[C@@H](CN)C(N)=O)NC(=O)[C@H](C(C)O)NC(=O)[C@H](C(C)(C)O)NC(=O)[C@H](CC3CCCCC3)NC(=O)[C@H](CCN)NC(=O)[C@@H](CC(C)C)NC(=O)[C@H](C)N(C)C(=O)[C@H](CCCNC(N)=O)NC(=O)[C@H](Cc3ccc(-c4ccccc4)cc3)NC(=O)[C@H](Cc3ccc(OCC(=O)O)cc3)NC2=O)c1 (stereo partly drawn) [Compound 2167] ({CH2CO}-VY(Carboxymethyl)D[Phe(3-Me)]Y(Carboxymethyl)[Bip][Cit][NMeA][dL][Dab][Cha][Val(3-OH)][Thr(3ξ)]C[Dap]-NH2; thioether N-14) is 5-fold higher in IC50: 0.01 µM for the first, 0.05 µM for the second. The first is the more potent here.

First: Cc1cccc(C[C@@H]2NC(=O)[C@H](CC(=O)O)NC(=O)[C@H](Cc3ccc(OCC(=O)O)cc3)NC(=O)[C@H](CN)NC(=O)CSCC(C(N)=O)NC(=O)[C@H](CO)NC(=O)[C@H](C(C)C)NC(=O)[C@H](CC(C)C)NC(=O)[C@H](CC(N)=O)NC(=O)[C@@H](CC(C)C)NC(=O)[C@H](C)N(C)C(=O)[C@H](C(C)C)NC(=O)[C@H](Cc3ccc(-c4ccccc4)cc3)NC(=O)[C@H](CC(C)C)NC2=O)c1 (stereo partly drawn) [Compound 1597] ({CH2CO}-[Dap]Y(Carboxymethyl)D[Phe(3-Me)]L[Bip]V[NMeA][dL]NLVS[ξC]-NH2; thioether N-14)
Second: CC[C@H](C)[C@@H]1NC(=O)[C@H](Cc2ccc(-c3ccccc3)cc2)NC(=O)[C@H](C(C)C)NC(=O)[C@H](Cc2cccc(C)c2)NC(=O)[C@H](CC(=O)O)NC(=O)[C@H](Cc2ccc(O)cc2)NC(=O)[C@H](CC(N)=O)NC(=O)CSC[C@@H](C(=O)N[C@@H](CCN)C(N)=O)NC(=O)[C@H]([C@@H](C)O)NC(=O)[C@H](C(C)(C)O)NC(=O)[C@H](CC2CCCCC2)NC(=O)[C@H](CCN)NC(=O)[C@@H](CC(C)C)NC(=O)[C@H](C)N(C)C1=O [Compound 1689] ({CH2CO}-NYD[Phe(3-Me)]V[Bip]I[NMeA][dL][Dab][Cha][Val(3-OH)]TC[Dab]-NH2; thioether N-14)
The IC50 of the first is 2.5-fold higher: 0.05 µM for the first, 0.02 µM for the second.
